According to ChEMBL document CHEMBL1201862, “PubChem BioAssay data set” (2004):
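Compound exposure: 48 hours, 5 concentrations, 96-well plates. GI50 is the concentration that inhibits growth by half.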 The source made the active and inactive calls. Rule as the data show it: active = GI50 up to about 1.1 µM and inactive = higher.

How the values were obtained:
Assay in all cases: DTP human tumour cell line panel, 48 h
[1] = test system: T47D
[2] = test system: SNB-19
[3] = test system: SF-539
[4] = test system: UACC-62
[5] = test system: MDA-N
[6] = test system: SF-268
[7] = test system: OVCAR-4
[8] = test system: SK-MEL-2
[9] = test system: NCI-H23
[10] = test system: KM12
[11] = test system: A549
[12] = test system: CAKI-1
[13] = test system: A498
[14] = test system: 786-0
[15] = test system: DU-145
[16] = test system: RXF 393
[17] = test system: UACC-257
[18] = test system: HT-29
[19] = test system: SNB-75
[20] = test system: HCT-116
[21] = test system: HL-60
[22] = test system: SK-MEL-5
[23] = test system: MDA-MB-231
[24] = test system: ACHN
[25] = test system: MCF7
[26] = test system: IGROV-1
[27] = test system: HCT-15
[28] = test system: NCI/ADR-RES
[29] = test system: SW-620
[30] = test system: OVCAR-3
[31] = test system: UO-31
[32] = test system: MDA-MB-435
[33] = test system: MOLT-4
[34] = test system: NCI-H522
[35] = test system: NCI-H460
[36] = test system: Malme-3M
[37] = test system: K562
[38] = test system: HOP-92
[39] = test system: SN12C
[40] = test system: BT-549
[41] = test system: CCRF-CEM
[42] = test system: OVCAR-8
[43] = test system: PC-3
[44] = test system: HOP-62
[45] = test system: SR
[46] = test system: LOX IMVI
[47] = test system: SK-MEL-28
[48] = test system: NCI-H226
[49] = test system: TK-10
[50] = test system: M14
[51] = test system: U-251
[52] = test system: COLO 205
[53] = test system: HCC 2998
[54] = test system: SK-OV-3
[55] = test system: SF-295
[56] = test system: OVCAR-5
[57] = test system: Hs-578T
[58] = test system: RPMI-8226
[59] = test system: EKVX

SMILES: COC(=O)c1cc2c(cc1CC(Cc1ccc3c(c1)CCCC3)C(=O)OC)CCCC2 (stereo unspecified)
- GI50 [1]: 39.8 µM (inactive)
- GI50 [2]: > 100 µM (inactive)
- GI50 [3]: 32.7 µM (inactive)
- GI50 [4]: > 100 µM (inactive)
- GI50 [5]: 65.3 µM (inactive)
- GI50 [6]: 29 µM (inactive)
- GI50 [7]: 29.9 µM (inactive)
- GI50 [8]: > 100 µM (inactive)
- GI50 [9]: 54.1 µM (inactive)
- GI50 [10]: 50.5 µM (inactive)
- GI50 [11]: 37.7 µM (inactive)
- GI50 [12]: > 100 µM (inactive)
- GI50 [13]: > 100 µM (inactive)
- GI50 [14]: 45.4 µM (inactive)
- GI50 [15]: > 100 µM (inactive)
- GI50 [16]: 25.8 µM (inactive)
- GI50 [17]: 16.4 µM (inactive)
- GI50 [18]: 33.7 µM (inactive)
- GI50 [19]: 64.4 µM (inactive)
- GI50 [20]: 36 µM (inactive)
- GI50 [21]: 7.45 µM (inactive)
- GI50 [22]: 24.5 µM (inactive)
- GI50 [23]: 68.4 µM (inactive)
- GI50 [24]: 49.9 µM (inactive)
- GI50 [25]: 40.1 µM (inactive)
- GI50 [26]: > 100 µM (inactive)
- GI50 [27]: 35.7 µM
- GI50 [28]: 41.3 µM (inactive)
- GI50 [29]: 80.9 µM (inactive)
- GI50 [30]: 44.6 µM (inactive)
- GI50 [31]: > 100 µM (inactive)
- GI50 [32]: 40.6 µM (inactive)
- GI50 [33]: 42.1 µM (inactive)
- GI50 [34]: 54.5 µM (inactive)
- GI50 [35]: 34 µM (inactive)
- GI50 [36]: 33.6 µM (inactive)
- GI50 [37]: 40.1 µM (inactive)
- GI50 [38]: 44.9 µM (inactive)
- GI50 [39]: > 100 µM (inactive)
- GI50 [40]: > 100 µM (inactive)
- GI50 [41]: 29.7 µM (inactive)
- GI50 [42]: 84.7 µM (inactive)
- GI50 [43]: 21.7 µM (inactive)
- GI50 [44]: > 100 µM (inactive)
- GI50 [45]: 97.7 µM (inactive)
- GI50 [46]: 28.2 µM (inactive)
- GI50 [47]: 86.1 µM (inactive)
- GI50 [48]: 59.3 µM (inactive)
- GI50 [49]: 95.3 µM (inactive)
- GI50 [50]: 88.3 µM (inactive)
- GI50 [51]: 41.7 µM (inactive)
- GI50 [52]: 33.2 µM (inactive)
- GI50 [53]: 20.8 µM (inactive)
- GI50 [54]: 49.5 µM (inactive)
- GI50 [55]: 76 µM (inactive)
- GI50 [56]: 68.4 µM (inactive)
- GI50 [57]: 93.3 µM (inactive)
- GI50 [58]: 20 µM (inactive)

SMILES: Cc1c(Cl)nc(Cl)nc1Cl
- GI50 [1]: 1.58 µM (inactive)
- GI50 [2]: 3.81 µM (inactive)
- GI50 [3]: 2.43 µM (inactive)
- GI50 [4]: 4 µM (inactive)
- GI50 [5]: 2.18 µM (inactive)
- GI50 [6]: 1.73 µM (inactive)
- GI50 [7]: 1.46 µM (inactive)
- GI50 [9]: 2.18 µM (inactive)
- GI50 [10]: 2.44 µM (inactive)
- GI50 [11]: 2.69 µM (inactive)
- GI50 [12]: 0.273 µM (active)
- GI50 [13]: 3.8 µM (inactive)
- GI50 [14]: 1.48 µM (inactive)
- GI50 [15]: 3.63 µM (inactive)
- GI50 [16]: 1.87 µM (inactive)
- GI50 [17]: 2.3 µM (inactive)
- GI50 [18]: 0.818 µM (active)
- GI50 [19]: 5.68 µM (inactive)
- GI50 [20]: 1.14 µM (inactive)
- GI50 [21]: 1.94 µM (inactive)
- GI50 [22]: 2.16 µM (inactive)
- GI50 [23]: 1.43 µM (inactive)
- GI50 [24]: 0.421 µM (active)
- GI50 [25]: 0.984 µM (active)
- GI50 [26]: 3.01 µM (inactive)
- GI50 [59]: 1.9 µM (inactive)
- GI50 [27]: 0.287 µM
- GI50 [28]: 1.36 µM (inactive)
- GI50 [29]: 1.27 µM (inactive)
- GI50 [30]: 1.85 µM (inactive)
- GI50 [31]: 0.409 µM (active)
- GI50 [32]: 2.19 µM (inactive)
- GI50 [33]: 0.321 µM (active)
- GI50 [34]: 0.044 µM (active)
- GI50 [35]: 5.71 µM (inactive)
- GI50 [36]: 1.05 µM (active)
- GI50 [37]: 0.6 µM (active)
- GI50 [38]: 2.12 µM (inactive)
- GI50 [39]: 2.69 µM (inactive)
- GI50 [40]: 3.65 µM (inactive)
- GI50 [41]: 0.238 µM (active)
- GI50 [42]: 2.48 µM (inactive)
- GI50 [43]: 2 µM (inactive)
- GI50 [44]: 4.97 µM (inactive)
- GI50 [45]: 0.434 µM (active)
- GI50 [46]: 0.373 µM (active)
- GI50 [47]: 3.18 µM (inactive)
- GI50 [48]: 3.21 µM (inactive)
- GI50 [49]: 3.51 µM (inactive)
- GI50 [50]: 0.857 µM (active)
- GI50 [51]: 1.77 µM (inactive)
- GI50 [52]: 0.307 µM (active)
- GI50 [53]: 1.2 µM (inactive)
- GI50 [54]: 3.91 µM (inactive)
- GI50 [55]: 5.7 µM (inactive)
- GI50 [56]: 1.88 µM (inactive)
- GI50 [57]: 3.12 µM (inactive)
- GI50 [58]: 2.38 µM (inactive)

SMILES: CN1COCc2c1ccc1cc3ccc4c(c3nc21)COCN4S(C)(=O)=O
- GI50 [1]: > 100 µM (inactive)
- GI50 [2]: > 100 µM (inactive)
- GI50 [4]: > 100 µM (inactive)
- GI50 [5]: > 100 µM (inactive)
- GI50 [6]: > 100 µM (inactive)
- GI50 [7]: > 100 µM (inactive)
- GI50 [9]: > 100 µM (inactive)
- GI50 [10]: > 100 µM (inactive)
- GI50 [11]: > 100 µM (inactive)
- GI50 [12]: > 100 µM (inactive)
- GI50 [13]: > 100 µM (inactive)
- GI50 [14]: 73.6 µM (inactive)
- GI50 [15]: > 100 µM (inactive)
- GI50 [16]: > 100 µM (inactive)
- GI50 [17]: > 100 µM (inactive)
- GI50 [18]: > 100 µM (inactive)
- GI50 [19]: 20 µM (inactive)
- GI50 [20]: > 100 µM (inactive)
- GI50 [22]: > 100 µM (inactive)
- GI50 [23]: > 100 µM (inactive)
- GI50 [24]: > 100 µM (inactive)
- GI50 [25]: 0.202 µM (active)
- GI50 [26]: > 100 µM (inactive)
- GI50 [59]: 78 µM (inactive)
- GI50 [27]: > 100 µM
- GI50 [28]: > 100 µM (inactive)
- GI50 [29]: > 100 µM (inactive)
- GI50 [30]: > 100 µM (inactive)
- GI50 [31]: > 100 µM (inactive)
- GI50 [32]: > 100 µM (inactive)
- GI50 [33]: > 100 µM (inactive)
- GI50 [34]: > 100 µM (inactive)
- GI50 [35]: > 100 µM (inactive)
- GI50 [36]: > 100 µM (inactive)
- GI50 [37]: > 100 µM (inactive)
- GI50 [38]: > 100 µM (inactive)
- GI50 [39]: > 100 µM (inactive)
- GI50 [40]: > 100 µM (inactive)
- GI50 [41]: > 100 µM (inactive)
- GI50 [42]: > 100 µM (inactive)
- GI50 [43]: > 100 µM (inactive)
- GI50 [44]: > 100 µM (inactive)
- GI50 [45]: 3.73 µM (inactive)
- GI50 [46]: > 100 µM (inactive)
- GI50 [47]: > 100 µM (inactive)
- GI50 [48]: > 100 µM (inactive)
- GI50 [49]: > 100 µM (inactive)
- GI50 [50]: > 100 µM (inactive)
- GI50 [51]: > 100 µM (inactive)
- GI50 [52]: > 100 µM (inactive)
- GI50 [53]: > 100 µM (inactive)
- GI50 [54]: > 100 µM (inactive)
- GI50 [55]: > 100 µM (inactive)
- GI50 [56]: > 100 µM (inactive)
- GI50 [57]: 95.9 µM (inactive)
